Laboratory results published in PubChem BioAssay (NCI).
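Each compound was tested at five concentrations against cells in 96-well plates for 48 hours. GI50 marks 50% less growth. TGI is the concentration that stops growth completely.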

Tests used:
Assay in all cases: NCI anticancer screen, dose series, 48 h
786-0 renal = test system: 786-0 renal
COLO 205 colon = test system: COLO 205 colon
EKVX NSCLC = test system: EKVX NSCLC
HCC-2998 colon = test system: HCC-2998 colon
HS 578T breast = test system: HS 578T breast
K-562 leukemia = test system: K-562 leukemia
KM12 colon = test system: KM12 colon
NCI/ADR-RES ovarian = test system: NCI/ADR-RES ovarian
RXF 393 renal = test system: RXF 393 renal
SF-295 CNS = test system: SF-295 CNS
SK-MEL-2 melanoma = test system: SK-MEL-2 melanoma
SK-OV-3 ovarian = test system: SK-OV-3 ovarian
SN12C renal = test system: SN12C renal
SNB-75 CNS = test system: SNB-75 CNS
TK-10 renal = test system: TK-10 renal
UACC-257 melanoma = test system: UACC-257 melanoma

| Structure (SMILES) | TGI (786-0 renal) [µM] | TGI (COLO 205 colon) [µM] | TGI (EKVX NSCLC) [µM] | TGI (HCC-2998 colon) [µM] | TGI (HS 578T breast) [µM] | TGI (K-562 leukemia) [µM] | TGI (KM12 colon) [µM] | TGI (NCI/ADR-RES ovarian) [µM] | TGI (RXF 393 renal) [µM] | TGI (SF-295 CNS) [µM] | TGI (SK-MEL-2 melanoma) [µM] | TGI (SK-OV-3 ovarian) [µM] | TGI (SN12C renal) [µM] | TGI (SNB-75 CNS) [µM] | TGI (TK-10 renal) [µM] | TGI (UACC-257 melanoma) [µM] | GI50 (EKVX NSCLC) [µM] | GI50 (RXF 393 renal) [µM] | GI50 (SK-MEL-2 melanoma) [µM] |
| --- | --- | --- | --- | --- | --- | --- | --- | --- | --- | --- | --- | --- | --- | --- | --- | --- | --- | --- | --- |
| CC12CC(C#N)(C#N)C(C#N)(CO1)C(=N)O2 (stereo unspecified) | > 100 | > 100 | > 100 | > 100 | > 100 | > 100 | > 100 | > 100 | > 100 | > 100 | > 100 | > 100 | > 100 | > 100 | > 100 | > 100 | – | – | – |
| Cc1cc(OCc2nnc3n2N=C(c2cc(F)c(Cl)cc2Cl)/C(=C/c2ccc(Cl)cc2)S3)ccc1Cl | > 100 | – | > 100 | 40.3 | 46.1 | 56.2 | 60.2 | > 100 | 39.4 | > 100 | > 100 | > 100 | – | – | > 100 | > 100 | – | – | – |
| CCOC(=O)NC1CN2CCC1CC2 (stereo unspecified) | > 100 | > 100 | > 100 | > 100 | > 100 | > 100 | > 100 | > 100 | > 100 | > 100 | > 100 | > 100 | > 100 | > 100 | – | > 100 | – | – | – |
| COc1ccc(C(OCC2OC(n3cc(C)c(=O)[nH]c3=O)CC2n2cc(Cn3cc(Br)c(=O)[nH]c3=O)nn2)(c2ccccc2)c2ccccc2)cc1 (stereo unspecified) | > 100 | > 100 | > 100 | > 100 | > 100 | – | > 100 | > 100 | > 100 | > 100 | > 100 | > 100 | > 100 | > 100 | > 100 | > 100 | – | – | – |
| CC1C[C@]2(C)C(=O)Nc3ccccc3[C@@H]2Nc2ccccc21 (stereo partly specified) | 45.2 | 34 | 81.8 | 88.5 | 72.9 | > 100 | 39.1 | 46.5 | 77.9 | > 100 | 45 | – | 37.6 | > 100 | 58 | 39.5 | – | – | – |
| COC(=O)C1C=CN(N(C)C)C2=C1C(=O)c1c(O)cccc1C2=O (stereo unspecified) | 11.4 | 3.66 | 11 | 3.67 | 7.58 | 52.1 | 6.95 | 6.47 | 14.1 | 3.31 | 7.81 | 22.7 | 3.95 | 3.19 | 15 | 2.8 | – | – | – |
| Cn1c(N)c2c3c(sc2nc1=O)CCCC3 | > 75 | > 75 | > 75 | > 75 | > 75 | > 75 | > 75 | > 75 | > 75 | > 75 | > 75 | – | > 75 | > 75 | > 75 | > 75 | – | – | – |
| Cc1ccsc1/C=N/Nc1ccc2ccccc2n1 | > 100 | > 100 | > 100 | > 100 | > 100 | > 100 | > 100 | > 100 | 89.8 | 31 | > 100 | 48 | > 100 | > 100 | 66.2 | 53.2 | – | – | – |
| CC(=C\c1ccccc1)/C=C(\C#N)C(N)=O | > 10 | > 10 | > 10 | > 10 | > 10 | – | > 10 | > 10 | > 10 | > 10 | > 10 | > 10 | > 10 | > 10 | > 10 | – | – | – | – |
| C#CCN(CC#C)C(=O)C(=O)c1c[nH]c2ccc(OC)cc12 | 31 | 60 | > 100 | 31 | 37.6 | 33.9 | 30.6 | 57.7 | 29.8 | 32.5 | – | 36.5 | 30 | 55.1 | 34.3 | 34 | – | – | – |
| CCOC(=O)c1cc(C2(O)CCN(CC(C)CC)C2=O)c(-c2cc(C)no2)[nH]1 (stereo unspecified) | > 100 | > 100 | > 100 | > 100 | > 100 | > 100 | > 100 | > 100 | > 100 | > 100 | > 100 | > 100 | > 100 | > 100 | – | > 100 | – | – | – |
| CC(C)(C)C(=O)OC(N)/C=C/c1ccccc1 (stereo unspecified) | > 100 | > 100 | > 100 | > 100 | > 100 | – | > 100 | > 100 | > 100 | > 100 | > 100 | > 100 | > 100 | > 100 | – | > 100 | – | – | – |
| CCc1nc2ccc(N=NN(C)C)cc2[nH]1 | > 100 | > 100 | > 100 | > 100 | > 100 | > 100 | > 100 | > 100 | > 100 | – | > 100 | – | > 100 | > 100 | > 100 | > 100 | – | – | – |
| Cc1ccc(NC(=S)NNC(=O)c2cc(-c3ccccc3)nc3ccccc23)cc1 | 26.1 | 35.3 | – | 24.3 | 38.2 | > 100 | 37.7 | 48 | 26.6 | 17.4 | 24 | 30.3 | 31.8 | 42.3 | 29.1 | 33 | – | – | – |
| Cc1c(CNc2ccc(C(=O)NC(CC(=O)O)C(=O)O)cc2)ccc2nc(N)nc(N)c12 (stereo unspecified) | > 1000 | – | > 1000 | 21.2 | > 1000 | > 1000 | > 1000 | > 1000 | > 1000 | > 1000 | > 1000 | – | > 1000 | – | – | > 1000 | > 1000 | > 1000 | > 1000 |
| CN1C(=O)C(CC=O)(C(C)(C)C)c2ccccc21 (stereo unspecified) | > 100 | > 100 | – | > 100 | > 100 | > 100 | > 100 | > 100 | > 100 | > 100 | > 100 | > 100 | > 100 | > 100 | – | > 100 | – | – | – |
| C[C@@]12CCC3C1C=C1C(=O)c4cc(O)ccc4C(=O)[C@]1(O2)[C@@]3(C)C=O | 14.5 | 19.5 | 22.5 | 9.74 | 75 | 12.5 | 18.1 | 49.5 | 14.1 | 22 | 20.2 | 21.5 | 8.85 | – | 21.7 | 18.7 | – | – | – |
| O=C1NN=C2C=C(c3ccc(Cl)cc3)CC(c3cccc(Cl)c3)C12 (stereo unspecified) | 62.8 | 35.8 | 64.7 | 33.5 | 55 | 41.8 | > 100 | > 100 | 38.5 | 38.4 | 45.3 | > 100 | 57.5 | – | 48.1 | 48.5 | – | – | – |
| COc1ccc(C(OC(C)=O)C2C(=C(C#N)C#N)c3ccccc3C2=C(C#N)C#N)cc1 (stereo unspecified) | > 100 | – | > 100 | 59.9 | 91.6 | > 100 | > 100 | > 100 | > 100 | 64.6 | 83.8 | 62.8 | – | > 100 | > 100 | > 100 | – | – | – |
| CCOC(=O)c1ccc(C(=O)/C(C#N)=C2\CCCN2C)[nH]1 | > 100 | > 100 | > 100 | > 100 | > 100 | > 100 | > 100 | > 100 | > 100 | > 100 | > 100 | – | > 100 | > 100 | > 100 | > 100 | – | – | – |
| COc1ccc(-c2c(C#N)c(O)n(NS(=O)(=O)c3ccc(C)cc3)c(=O)c2C#N)cc1 | > 100 | > 100 | > 100 | > 100 | > 100 | – | > 100 | > 100 | > 100 | > 100 | > 100 | > 100 | > 100 | > 100 | > 100 | > 100 | – | – | – |
| CC1(C)OC2C(O)CN3CCS[C@H]3C2O1 (stereo partly specified) | > 100 | > 100 | > 100 | > 100 | > 100 | > 100 | > 100 | > 100 | > 100 | > 100 | > 100 | > 100 | – | > 100 | > 100 | > 100 | – | – | – |
| C[C@@H]1CCC2[C@@H](C)[C@@H](OCCO[C@H]3OC4O[C@@]5(C)CCC6[C@H](C)CCC([C@H]3C)[C@@]46OO5)OC3O[C@@]4(C)CCC1[C@]32OO4 (stereo partly specified) | > 100 | 0.304 | > 100 | > 100 | > 100 | – | > 100 | 3.14 | > 100 | > 100 | 6.06 | > 100 | > 100 | > 100 | > 100 | > 100 | – | – | – |
